From US6417235B2, “Method and use of α-amino-β-mercapto-ethane derivatives as dicarbonyl scavengers for treatment of conditions resulting from protein, lipid, and DNA damage” (University of Kentucky Research Foundation, priority 2000, dated 2002)

Tested on: glycation of histone H1 by ADP-ribose
Test: Screening of inhibitors of nonoxidative advanced glycation: AGE-fluorescence on 96 well-microtiter plate
Type: biochemical, calf
Settings: (± SEM, n = 2); for AGE-fluorescence (day 5): complete reaction under air
Protocol: All operations were carried out at 4° C. Chromatin was isolated from fresh calf thymus by extraction with 0.14 M NaCl, 0.05 M Na2S2O5, as described earlier in Wondrak supra. After repeated extraction with 5% HCl)4 and centrifugation (1500 g), histone H1 was precipitated from the supernatant by addition of TCA (20% final concentration v/v). The histone H1 precipitate was colleted by centrifugation (12,000 g) and deionized water. After extensive dialysis (MW cut-off: 12,000-14,000) against water for 48 h, the sample was lyophilized and the protein was stored at 4° C. SDS-PAGE (12%) was used to analyze the purity of the preparation.
Earlier studies have reported that D-penicillamine inhibits collagen crosslinking and AGE fluorescence caused by sugars (McPherson, J. D., Shilton, B. H., and Walton, D. J. 1988. Role of Fructose in Glycation and Cross-Linking of Proteins. Biochemistry 27, 1901-1907) and reaction of D-penicillamine with aldehyde groups of proteins (Deshmukh, K., and Nimm, M. E. 1969. A Defect in the Intramolecular and Intermolecular Cross-linking of Collagen caused by Penicillamine. J. Biol. Chem. 244, 1787-1795). A number of different penicillamines and penicillamine derivatives were tested to determine the inhibition of AGE-fluorescence on histone H1 at physiological pH. The reaction conditions for the glycation of histone H1 by ADP-ribose mimic physiological conditions to the extent possible. Reaction mixtures contain 1.5 mg/ml histone Hl, 1.0 mM ADP-ribose, 50 mM potassium phosphate buffer, pH 7.4, 37° C. D,L-penicillamine; L-penicillamine; D-penicllamine; D-penicillaminedisulfide and N,S- isopropylidine-D-penicillamine were tested in concentrations of 1,5 and 10 mM. The detected reaction parameter representing the accumulation of protein damage is AGE-fluorescence ((λex=[…]), which is suppressed by the presence of a compound with inhibitory activity. Generation of AGE-type fluorescence (λex=355 nm; λem=405 nm) was monitored over time at 37° C; which is in the range of the broad excitation/emission maxima of AGE compounds. To allow high throughput sample processing on 96 well microtiter plates, the reaction volumes are 300 μl. Fluorescence on the 96-well microtiter plates was measured using an automated microtiter fluorescence reader. Fluorescence of the 1 ml samples of the glycation reaction mixtures was measured using a Hitachi F-200 fluorescence spectophotometer, and prior to measurement the protein sample is dialyzed extensively against water (MW cutoff=[…]), lyophilized and reconstituted in reaction buffer. For inhibitor screening the plate is read on a Fluoroskan II plate reader (Titertek, ICN) at the excitation/emission wavelengths set forth above at a bandwidth of 35 nm.
The following screening scheme is used (see Table 1): AGE-fluorescence is determined at the beginning and after five days of incubation. Test compounds that are inherently fluorescent (designated false negatives) were identified by the initial fluorescence measurement (See Table 1, NADH for example). Since these are compounds of uncertain activity, they are diverted directly to the second stage of the screen. Aminoguanidine, a known glycation inhibitory agent, was used as a positive control for suppression of the increase on AGE-fluorescence. After five days incubation and plate reading, fluorescence quenchers (designated false positives) are excluded by measuring the quenching activity of the test compound by addition of AGE modified protein having known fluorescence activity to one microtiter plate well containing test compound in the complete reaction mixture. For this, AGE-BSA is used as the AGE-type fluorescence standard. This AGE-BSA test excludes false positives compounds that function by fluorescence quenching. If fluorescence quenching occurs the test compound is excluded from further screening. […] The protein is visualized by silver staining of the gel. […]

Row | Compound | AGE-fluorescence (day 0) (compound 1 mM) | AGE-fluorescence (day 5) (compound 1 mM) | AGE-fluorescence (day 0) (compound 5 mM) | AGE-fluorescence (day 5) (compound 5 mM) | AGE-fluorescence (day 0) (compound 10 mM) | AGE-fluorescence (day 5) (compound 10 mM)
1 | NC(CCS)C(=O)O (racemic) [D,L-Homocysteine] | 1.3 (0.0) relative units | 16 (1.1) relative units | 1.2 (0.2) relative units | 22 (0.1) relative units | 1.1 (0.1) relative units | 27 (1.7) relative units
2 | CC(C)(S)C(N)C(=O)O (racemic) [D,L-Penicillamine] | 1.1 (0.2) relative units | 13 (0.0) relative units | 1.1 (0.1) relative units | 2.7 (0.0) relative units | 1.1 (0.1) relative units | 1.7 (0.0) relative units
3 | O=C1CC(=O)NC(=S)N1 [2-Thiobarbituric acid] | 1.1 (0.1) relative units | 12 (0.4) relative units | 1.2 (0.1) relative units | 5.3 (0.4) relative units | 1.3 (0.1) relative units | 2.3 (0.0) relative units
4 | NCCS [Cysteamine] | 1.0 (0.1) relative units | 10 (0.6) relative units | 1.1 (0.1) relative units | 9.0 (0.7) relative units | 1.2 (0.2) relative units | 6.0 (0.3) relative units
5 | N[C@@H](CCC(=O)N[C@@H](CS)C(=O)NCC(=O)O)C(=O)O [GSH, glutathione] | 1.3 (0.0) relative units | 19 (0.3) relative units | 1.1 (0.3) relative units | 17 (0.3) relative units | 1.1 (0.0) relative units | 14 (0.5) relative units
6 | COC(=O)[C@@H](N)CS [L-Cys-OMe] | 1.2 (0.1) relative units | 15 (0.1) relative units | 1.3 (0.1) relative units | 12 (0.8) relative units | 1.2 (0.1) relative units | 9.0 (0.2) relative units
7 | N[C@@H](CS)C(=O)O [L-Cys] | 1.2 (0.1) relative units | 14 (0.3) relative units | 1.1 (0.1) relative units | 11 (0.2) relative units | 1.2 (0.1) relative units | 9.0 (0.2) relative units
8 | C[N+](C)(C)[C@@H](Cc1c[nH]c(=S)[nH]1)C(=O)[O-] [L-Ergothioneine] | 1.0 (0.1) relative units | 13 (0.0) relative units | 1.2 (0.0) relative units | 9.3 (0.2) relative units | 1.2 (0.1) relative units | 7.4 (0.1) relative units
9 | CC(=O)N[C@@H](CS)C(=O)O [NAC] | 1.2 (0.2) relative units | 11 (0.6) relative units | 1.0 (0.1) relative units | 10 (0.4) relative units | 1.1 (0.1) relative units | 9.4 (0.6) relative units
10 | NC(=O)C1=CN([C@@H]2O[C@H](COP(=O)(O)OP(=O)(O)OC[C@H]3O[C@@H](n4cnc5c(N)ncnc54)[C@H](O)[C@@H]3O)[C@@H](O)[C@H]2O)C=CC1 [NADH] | – | – | 52 (0.3) relative units | 31 (0.0) relative units | – | –
11 | L-Cys-Gly | 1.3 (0.3) relative units | 17 (0.0) relative units | 1.2 (0.2) relative units | 26 (0.4) relative units | 1.2 (0.1) relative units | 40 (0.0) relative units
